In experiment [1] the target is SNAP-hSPR (sepiapterin reductase, SPR) (Homo sapiens, UniProt P35270). Briefly: biochemical. The class given is binding. As to conditions: terbium labelled SNAP-hSPR / SSZ labelled SNAP-EGFP; read-out: hTR-FRET IC50.
Experiment [2] concerns BH4 levels in SK-N-BE (2) cells. The experiment can be described thus: SKN-N-BE (2) cellular assay, BH4 levels by LC-MS. The class given is cell-based. Particulars: Homo sapiens, SKNBE2, read-out: SK-N-BE(2) IC50, SK-N-BE (2) cells, BH4 levels by LC-MS.
Protocol: SKN-N-BE(2) Cellular Assay: SK-N-BE (2) cells were seeded in sterile, 96-well plates and incubated for 12-24 hours at 37° C. with 5% CO2 supply. Media was removed and fresh DMEM/F-12 media (containing Glutamine & Pen/Strep but no FBS) was added. Compounds (at different concentrations) were added to different wells. The plates were then incubated for 6-48 hours at 37° C. with 5% CO2 supply. Plates were then centrifuged and the supernatant was removed. The plates were then optionally washed once with PBS. They were then sealed and stored at −80° C. or immediately used. The cells were lysed and the level of BH4 was assessed by LC-MS.
Compounds were assayed for SPR inhibitory activity using a SKN-N-BE (2) cellular assay according to the following procedure. SK-N-BE (2) cells were seeded in sterile, 96-well plates and incubated for 12-24 hours at 37° C. with 5% CO2 supply. Media was removed and fresh DMEM/F-12 media (containing Glutamine & Pen/Strep but no FBS) was added. Compounds (at different concentrations) were added to different wells. The plates were then incubated for 6-48 hours at 37° C. with 5% CO2 supply. Plates were then centrifuged and the supernatant was removed. The plates were then optionally washed once with PBS. They were then sealed and stored at −80° C. or immediately used in the next step. The cells were lysed and the levels of BH4 were assessed by LC-MS.

Sequence of SNAP-hSPR (sepiapterin reductase, SPR) (P35270 whole entry): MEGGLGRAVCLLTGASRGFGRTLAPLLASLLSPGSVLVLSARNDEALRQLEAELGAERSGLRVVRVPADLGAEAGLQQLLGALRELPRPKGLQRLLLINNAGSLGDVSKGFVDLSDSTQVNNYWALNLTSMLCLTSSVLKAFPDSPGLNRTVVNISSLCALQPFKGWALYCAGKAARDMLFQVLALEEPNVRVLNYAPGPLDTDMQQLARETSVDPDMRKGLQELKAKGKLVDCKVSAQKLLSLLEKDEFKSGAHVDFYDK

In general, IC50 refers to the midpoint of a concentration-inhibition curve. Regarding `O=C(c1cnn(-c2nc3ccsc3c(=O)[nH]2)c1)N1CCC(CC(F)(F)F)CC1` [Q-0712], the IC50 in experiment [1] amounted to 2 nM; in experiment [2], 300 nM.

With `O=C(c1cnn(-c2nn3cccc3c(=O)[nH]2)c1)N1CCC(CC(F)(F)F)CC1` [Q-0713], the half-inhibitory concentration (IC50) in experiment [1] came to 1 nM; in experiment [2], 200 nM.

As to `Cc1c(C(=O)N2CCNCC2)cnn1-c1nc2c(c(=O)[nH]1)CCC2` [Q-0714], the IC50 in experiment [1] is 30 nM; in experiment [2], 8100 nM.

For the molecule `Cc1c(C(=O)N2CCN(c3ccc(F)cc3F)CC2)cnn1-c1nn2cccc2c(=O)[nH]1` [Q-0715], the values for the IC50 in experiment [1] and in experiment [2] were 2 nM and 97 nM, respectively.

In the case of `O=C(c1cnn(-c2nn3cccc3c(=O)[nH]2)c1)N1CCC(S(=O)(=O)c2ccc(F)c(F)c2)CC1` [Q-0716], the IC50 in experiment [1] is 2 nM; in experiment [2], 400 nM.

With `O=C(c1cnn(-c2nc3c(c(=O)[nH]2)CCC3)c1)N1CCC(c2nc3ccc(F)cc3s2)CC1` [Q-0718], the IC50 in experiment [1] is 4 nM; in experiment [2], 200 nM.

With `O=C(c1cnn(-c2nn3cccc3c(=O)[nH]2)c1)N1CCC(C(O)(C(F)(F)F)C(F)(F)F)CC1` [Q-0719], the IC50 turned out to be 2 nM in experiment [1] and 200 nM in experiment [2].

For the molecule `CC(C)(C#N)C1CCN(C(=O)c2cnn(-c3nn4cccc4c(=O)[nH]3)c2)CC1` [Q-0720], the results for the half-inhibitory concentration (IC50) in experiment [1] and in experiment [2] were 1 nM and 300 nM, respectively.

In the case of `Cc1c(C(=O)N2CCN(C)CC2)cnn1-c1nc2c(c(=O)[nH]1)CCC2` [Q-0722], the results for the half-maximal inhibitory concentration (IC50) in experiment [1] and in experiment [2] were 20 nM and 3300 nM, respectively.

As for `Cc1c(C(=O)N2CCN(C(=O)OC(C)(C)C)CC2)cnn1-c1nc2c(c(=O)[nH]1)CCC2` [Q-0723], the results for the IC50 in experiment [1] and in experiment [2] were 3 nM and 200 nM, respectively.

For `Cc1c(C(=O)N2CCC(CC(F)(F)F)CC2)cnn1-c1nc2sccc2c(=O)[nH]1` [Q-0724], the IC50 in experiment [1] came out at 2 nM; in experiment [2] it was 200 nM.

On to `CCC1(C#N)CCN(C(=O)c2cnn(-c3nc4c(c(=O)[nH]3)CCC4)c2)CC1` [Q-0725], for which the IC50 amounted to 1 nM in experiment [1] and 100 nM in experiment [2].

Turning to `N#CC1(c2ccccc2)CCN(C(=O)c2cnn(-c3nc4c(c(=O)[nH]3)CCC4)c2)CC1` [Q-0726], the figures for the IC50 in experiment [1] and in experiment [2] were 1 nM and 74 nM, respectively.

On to `Cc1c(C(=O)N2CCC(C3CC3)CC2)cnn1-c1nn2cccc2c(=O)[nH]1` [Q-0727], for which the IC50 in experiment [1] is 1 nM; in experiment [2], 81 nM.

Take `CN(C(=O)OC(C)(C)C)[C@@H]1CCN(C(=O)c2cnn(-c3nn4cccc4c(=O)[nH]3)c2)C1` [Q-0730]: the IC50 in experiment [1] came out at 1 nM; in experiment [2], 200 nM.

For the molecule `Cc1c(C(=O)N2CCN(C)c3ccccc32)cnn1-c1nc2c(c(=O)[nH]1)CCC2` [Q-0731], the IC50 came to 2 nM in experiment [1] and 53 nM in experiment [2].

Turning to `O=C(c1ccn(-c2nc3c(c(=O)[nH]2)CCC3)c1)N1CCC(C(F)(F)F)CC1` [Q-0732], the IC50 in experiment [1] was determined as 1 nM; in experiment [2], 100 nM.

With `O=C(c1cnn(-c2nn3cccc3c(=O)[nH]2)c1)N1CCN(c2ccc(F)cc2F)CC1` [Q-0734], the IC50 was 4 nM in experiment [1] and 300 nM in experiment [2].

`O=C(c1cnn(-c2nc3c(c(=O)[nH]2)CCC3)c1)N1CCN(c2ccc(F)cc2F)CC1` [Q-0735]: the half-maximal inhibitory concentration (IC50) stood at 3 nM in experiment [1] and 95 nM in experiment [2].

Regarding `Cc1c(C(=O)N2CC[C@@H](N(C)C(=O)OC(C)(C)C)C2)cnn1-c1nn2cccc2c(=O)[nH]1` [Q-0736], the 50% inhibitory concentration (IC50) in experiment [1] was 2 nM; in experiment [2] it was 200 nM.

Turning to `O=C(c1ccn(-c2nn3cccc3c(=O)[nH]2)c1)N1CCC(C(F)(F)F)CC1` [Q-0738], the half-inhibitory concentration (IC50) came to 1 nM in experiment [1] and 100 nM in experiment [2].

For `Cc1c(C(=O)N2C3CCC2CN(C(=O)OC(C)(C)C)C3)cnn1-c1nn2cccc2c(=O)[nH]1` [Q-0739], the IC50 in experiment [1] amounted to 2 nM; in experiment [2], 300 nM.

On to `O=C(c1cnn(-c2nn3cc(F)cc3c(=O)[nH]2)c1)N1CCC(CC(F)(F)F)CC1` [Q-0741], for which the IC50 in experiment [1] is 4 nM; in experiment [2], 400 nM.

As for `O=C(c1cnn(-c2nc3c(c(=O)[nH]2)CCC3)c1)N1CCN2CCC[C@@H]2C1` [Q-0743], the results for the IC50 in experiment [1] and in experiment [2] were 4 nM and 400 nM, respectively.

On to `O=C(c1cnn(-c2nc3c(c(=O)[nH]2)CCC3)c1)N1CCC(CC(F)(F)F)CC1` [Q-0744], for which the IC50 is 3 nM in experiment [1] and 100 nM in experiment [2].

`Cc1c(C(=O)N2C3CCC2CN(C(=O)OC(C)(C)C)C3)cnn1-c1nc2c(c(=O)[nH]1)CCC2` [Q-0745]: the IC50 in experiment [1] turned out to be 4 nM; in experiment [2], 200 nM.

`CCC1(C#N)CCN(C(=O)c2cnn(-c3nn4cc(F)cc4c(=O)[nH]3)c2)CC1` [Q-0746]: the figures for the IC50 in experiment [1] and in experiment [2] were 4 nM and 600 nM, respectively.

As for `Cc1c(C(=O)N2CCC(CC(F)(F)F)CC2)cnn1-c1nn2cc(F)cc2c(=O)[nH]1` [Q-0747], the figures for the IC50 in experiment [1] and in experiment [2] were 8 nM and 800 nM, respectively.

With `Cc1c(C(=O)N2CCC3(CN(C(=O)OC(C)(C)C)C3)C2)cnn1-c1nn2cccc2c(=O)[nH]1` [Q-0748], the results for the IC50 in experiment [1] and in experiment [2] were 4 nM and 900 nM, respectively.

For the molecule `Cc1c(C(=O)N2CC(c3ccc(F)c(F)c3)C2)cnn1-c1nc2c(c(=O)[nH]1)CCC2` [Q-0749], the IC50 in experiment [1] is 3 nM; in experiment [2] it was 50 nM.

On to `O=C(c1cnn(-c2nc3sccc3c(=O)[nH]2)c1)N1CCC(C2CC2)CC1` [Q-0751], for which the concentration for half-maximal inhibition (IC50) is 3 nM in experiment [1] and 200 nM in experiment [2].

For the molecule `O=C(c1cnn(-c2nc3sccc3c(=O)[nH]2)c1)N1CCC(CC(F)(F)F)CC1` [Q-0752], the IC50 in experiment [1] was determined as 4 nM; in experiment [2] it was 500 nM.

For `O=C(c1cnn(-c2nc3sccc3c(=O)[nH]2)c1)N1CCC(C(F)(F)F)CC1` [Q-0753], the results for the IC50 in experiment [1] and in experiment [2] were 2 nM and 200 nM, respectively.

Take `O=C(c1cnn(-c2nc3sccc3c(=O)[nH]2)c1)N1CCC(c2c[nH]c3ccccc23)CC1` [Q-0754]: the results for the IC50 in experiment [1] and in experiment [2] were 9 nM and 100 nM, respectively.

For `O=C(c1cnn(-c2nc3sccc3c(=O)[nH]2)c1)N1CCN2CCC[C@@H]2C1` [Q-0755], the figures for the IC50 in experiment [1] and in experiment [2] were 4 nM and 500 nM, respectively.

`Cc1c(C(=O)N2CCN(C)CC2)cnn1-c1nn2cccc2c(=O)[nH]1` [Q-0756]: the values for the IC50 in experiment [1] and in experiment [2] were 4 nM and 800 nM, respectively.

As for `CC1CCN(C(=O)c2cnn(-c3nn4cccc4c(=O)[nH]3)c2C2CC2)CC1` [Q-0757], the results for the half-inhibitory concentration (IC50) in experiment [1] and in experiment [2] were 2 nM and 200 nM, respectively.

Consider `O=C(c1cnn(-c2nn3c(F)ccc3c(=O)[nH]2)c1)N1CCC(CC(F)(F)F)CC1` [Q-0758], for which the 50% inhibitory concentration (IC50) came out at 2 nM in experiment [1] and 90 nM in experiment [2].

For the molecule `Cc1c(C(=O)N2CCN(C)c3ccccc32)cnn1-c1nn2cccc2c(=O)[nH]1` [Q-0759], the half-maximal inhibitory concentration (IC50) in experiment [1] is 1 nM; in experiment [2], 200 nM.

In the case of `Cc1c(C(=O)N2CC3(CCN(C(=O)OC(C)(C)C)C3)C2)cnn1-c1nn2cccc2c(=O)[nH]1` [Q-0762], the IC50 came to 2 nM in experiment [1] and 200 nM in experiment [2].

As for `Cc1c(C(=O)N2CCC(C(F)(F)F)CC2)cnn1-c1nc2c(c(=O)[nH]1)CC2` [Q-0765], the IC50 in experiment [1] was 5 nM; in experiment [2] it was 300 nM.

For `Cc1c(C(=O)N2CC(c3ccc(F)c(F)c3)C2)cnn1-c1nn2cccc2c(=O)[nH]1` [Q-0771], the 50% inhibitory concentration (IC50) in experiment [1] was 1 nM; in experiment [2], 200 nM.

For the molecule `Cc1c(C(=O)N2C[C@@H]3CN(C(=O)OC(C)(C)C)[C@@H]3C2)cnn1-c1nn2cccc2c(=O)[nH]1` [Q-0773], the IC50 in experiment [1] amounted to 6 nM; in experiment [2], 1700 nM.

Take `O=C(O)c1cn(-c2nn3cccc3c(=O)[nH]2)nn1` [Q-0774]: the figures for the half-inhibitory concentration (IC50) in experiment [1] and in experiment [2] were 200 nM and 10000 nM, respectively.

Take `CCC1(C#N)CCN(C(=O)c2cn(-c3nn4cccc4c(=O)[nH]3)nn2)CC1` [Q-0775]: the IC50 in experiment [1] was 2 nM; in experiment [2], 1000 nM.

For the molecule `Cc1c(C(=O)O)nnn1-c1nn2cccc2c(=O)[nH]1` [Q-0779], the values for the half-maximal inhibitory concentration (IC50) in experiment [1] and in experiment [2] were 20 nM and 10000 nM, respectively.

Take `CCOC(=O)c1nnn(-c2nn3cccc3c(=O)[nH]2)c1C` [Q-0780]: the IC50 in experiment [1] is 1 nM; in experiment [2] it was 200 nM.

As to `O=C(c1cn(-c2nn3cccc3c(=O)[nH]2)nn1)N1CCC(C(F)(F)F)CC1` [Q-0781], the values for the IC50 in experiment [1] and in experiment [2] were 1 nM and 200 nM, respectively.

For `O=C(c1cnn(-c2nn3cccc3c(=O)[nH]2)c1)N1CCC(OCC(F)(F)F)CC1` [Q-0783], the 50% inhibitory concentration (IC50) in experiment [1] worked out at 2 nM; in experiment [2] it was 300 nM.

As for `Cc1c(C(=O)N2CC3(CCCN3C(=O)OC(C)(C)C)C2)cnn1-c1nn2cccc2c(=O)[nH]1` [Q-0785], the IC50 in experiment [1] is 1 nM; in experiment [2], 200 nM.

With `Cc1c(C(=O)N2CC[C@@H]3CN(C(=O)OC(C)(C)C)[C@@H]3C2)cnn1-c1nn2cccc2c(=O)[nH]1` [Q-0788], the half-inhibitory concentration (IC50) came to 10 nM in experiment [1] and 3600 nM in experiment [2].

`Cc1c(C(=O)N2C[C@@H]3CCN(C(=O)OC(C)(C)C)C[C@@H]32)cnn1-c1nn2cccc2c(=O)[nH]1` [Q-0790]: the IC50 in experiment [1] was found to be 7 nM; in experiment [2] it was 1400 nM.

`Cc1c(C(=O)N2CC3CC2C3)cnn1-c1nn2cccc2c(=O)[nH]1` [Q-0791]: the IC50 in experiment [1] was 2 nM; in experiment [2], 600 nM.

In the case of `Cc1c(C(=O)N2CCC3(CC2)COC3)cnn1-c1nn2cccc2c(=O)[nH]1` [Q-0793], the IC50 is 3 nM in experiment [1] and 1000 nM in experiment [2].

Take `Cc1c(C(=O)N2CCC3(CC2)OCCO3)cnn1-c1nn2cccc2c(=O)[nH]1` [Q-0795]: the results for the IC50 in experiment [1] and in experiment [2] were 2 nM and 500 nM, respectively.

For `Cc1c(C(=O)N2CC3CC(F)(F)CC3C2)cnn1-c1nn2cccc2c(=O)[nH]1` (stereo not drawn) [Q-0796], the IC50 was determined as 1 nM in experiment [1] and 200 nM in experiment [2].

As for `Cc1c(C(=O)N2CCN(C(=O)OC(C)(C)C)CC23CCC3)cnn1-c1nn2cccc2c(=O)[nH]1` [Q-0798], the results for the IC50 in experiment [1] and in experiment [2] were 2 nM and 300 nM, respectively.

The record behind these values is patent US9963462B2 (priority 2015, dated 2018).
